Measured values: patent publication US20250333708A1, “MANIPULATING NEPHRON DIFFERENTIATION RATE IN INDUCED HUMAN PLURIPOTENT STEM CELL ORGANOIDS AND TISSUES BY ENGINEERING MECHANICS OF THE MICROENVIRONMENT” (THE TRUSTEES OF THE UNIVERSITY OF PENNSYLVANIA, priority 2022, published 2025)

Experiments:
[1] = test system: day 9 metanephric mesenchyme spheroids (human iPSC-derived nephron progenitors); assay: Nephron progenitor spheroid differentiation assay (SIX2 / LHX1 immunofluorescence); format: cell-based; settings: 48 hr; for LHX1+ early nephron cells in spheroids (marker positive pixel area as % of projection area): single agent in FGF9 basal media, 3 μM CHIR or 10 μM Y27632; for LHX1+ early nephron cells in spheroids, agent combined with CHIR: 3 μM CHIR plus 10 μM Y27632 or 30 μM blebbistatin
Description: We then decided to mimic the reduction in anisotropic stress that occurs over the tip life-cycle in vivo by adding the ROCK inhibitor Y-27632 or the non-muscle myosin II inhibitor blebbistatin to day 9 metanephric mesenchyme spheroids for 48 hr. These temporal parameters were optimized to capture early transitions of cells through the SIX2+ state and to accumulate differentiation events sparsely, enabling quantification. Spheroids were analyzed by immunofluorescence for SIX2 and the pre-tubular aggregate/renal vesicle (early nephron) marker LHX1 (FIG. 6E). […] These LHX1+ cells clustered and began to express the later medial nephron marker Jag1, indicating appropriate progression of differentiation after perturbation (FIG. 6D).
Nephron progenitor spheroid differentiation assays. Day 9 cap mesenchyme-stage nephron progenitors were lifted with Accutase and re-plated at 50,000 cells per well in 96-well ultra low attachment round-bottom plates (Corning 7007) in Advanced RPMI 1640 Medium, Glutamax, 1× Penn/Strep and 10 ng ml^−1 FGF9 (“basal media”) plus the specified perturbation conditions, which included 3 μM CHIR, 10 μM Y27632 (StemCell Technologies, 72304) from a 10 mM stock in DMSO, and/or 30 μM(S) (S)-(−)-blebbistatin (Tocris, 1852) from a 30 mM stock in DMSO. Cells were then aggregated by plate centrifugation at 300 g for 30 s. After 48 hr in culture, spheroids were collected and transferred to 1.7 mL tubes using a p200 pipette tip widened by cutting the tip to size with a razor blade. Excess media was removed and spheroids were fixed in ice-cold 4% paraformaldehyde in PBS for 15 min. Spheroids were then stained for immunofluorescence microscopy similar to kidneys (see Kidney immunofluorescence imaging.) via primary and secondary antibody incubation for 48 hr each at 4 C and washes in PBSTX totaling 6 hours. Primary antibodies and dilutions included mouse anti-Lhx1 (1:50, 4F2, Developmental Studies Hybridoma Bank, University of Iowa, RRID: AB_531784) and rabbit anti-Six2 (1:600, 11562-1-AP, Proteintech, RRID: AB_2189084). Spheroids were then incubated in 1 μg ml^−1 DAPI in PBS at 4 C for 1 hr before washing once in ice-cold PBS. Spheroids were transferred for imaging using a widened p200 pipette tip to a cover-slip bottom 24-well plate (Greiner 662892). Excess PBS was removed and spheroids were incubated with ˜20 μl of FocusClear (Cedarlane Labs, FC-101) for 20 min at room temperature prior to confocal imaging. Spheroids were imaged using 5 μm z-steps.
Quantification of spheroid cell differentiation. Maximum intensity projections of spheroids were generated and further processed in FIJI. DAPI signal was used to segment spheroids and calculate their areas in number of pixels. SIX2 and LHX1 signal was segmented using 50 pix rolling ball background subtraction and thresholding to remove background signal. The total numbers of SIX2+ and LHX1+ pixels were then divided by the total number of DAPI+ pixels to normalize positive pixels by spheroid area.

[2] = test system: day 9 iPSC-derived metanephric mesenchyme; assay: CHIR effect on day 9 iPSC-derived metanephric mesenchyme (substrate release and compaction); format: cell-based, human; settings: day 9 cells, CHIR pulse; ascribed to collective cell contractility rather than motility
From the text: We next turned to a bottom-up approach using human iPSC-derived nephron progenitor organoids to assess the effects of mechanical microenvironment changes on nephron differentiation (FIG. 6B). When differentiated, these roughly mimic the progression in transcriptional states and marker expression profiles of mouse nephron progenitors in vivo, despite some species-specific differences (61-65). To test perturbations to cell collective tension during nephron progenitor commitment, we first differentiated PSCs through late primitive streak and posterior intermediate mesoderm (PIM) lineages to metanephric mesenchyme according to established protocols (66), confirming by qPCR (FIG. 10). We also validated that induced metanephric mesenchyme cells go on to form later nephron structures including ECAD+tubules containing GATA3+ distal nephron cells and Na^+/[…]/2Cl^− cotransporter SLC12A1+ loop of Henle cells after 21 days in culture (FIG. 6C). Day 9 induced metanephric mesenchyme cells were dissociated and plated into low-attachment round-bottom plates where they formed spheroids that we assayed for early nephrogenesis (FIG. 6D). In similar assays, a CHIR pulse is typically applied after re-aggregation of cells to mimic Wnt9b-driven β-catenin signaling during nephron progenitor commitment in vivo (61,62,67,68). […]

[3] = test system: Rho-associated protein kinase (ROCK); settings: cited from earlier work

Compound	LHX1+ early nephron cells in spheroids (marker positive pixel area as % of projection area) [1]	LHX1+ early nephron cells in spheroids, agent combined with CHIR [1]	other results
Cc1c[nH]c(-c2cnc(NCCNc3ccc(C#N)cn3)nc2-c2ccc(Cl)cc2Cl)n1 [CHIR]	increased differentiation to the LHX1+ state	–	Cell release from substrate and compaction [2]: induced cell release from their substrate and compaction
Cc1cncc2cccc(S(=O)(=O)N3CCCNC[C@@H]3C)c12 [H1152]	–	–	Nephron formation, high dose ([3]; high dose H1152): decreases in nephron formation; Nephron formation, low dose ([3]; low dose H1152): increases in nephron formation
C[C@@H](N)[C@H]1CC[C@H](C(=O)Nc2ccncc2)CC1 [Y-27632]	did not by itself induce LHX1+ cells	synergistic effect	SIX2+ nephron progenitors in spheroids (marker positive pixel area as % of projection area) ([1]; 10 μM Y27632 in FGF9 basal media, without CHIR): increased cell conversion to and/or self-renewal of SIX2+ progenitors
Cc1ccc2c(c1)C(=O)[C@]1(O)CCN(c3ccccc3)C1=N2 [blebbistatin, (S)-(−)-blebbistatin]	–	synergistic effect	–
